From PubChem BioAssay (NCI)
Values joined by “and” are separate entries in the source; they are usually repeats but may differ in a detail not shown here. Equal values may be shown once.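 Exposure lasted 48 hours, with cells grown in 96-well plates and compounds tested at five concentrations. Abbreviation: GI50, concentration required for 50% inhibition of growth. The concentration for full growth arrest is given as TGI.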

Legend:
Experiment in all cases: NCI tumour cell line growth inhibition, 48 h
[1] = test system: A549 NSCLC
[2] = test system: BT-549 breast
[3] = test system: DU-145 prostate
[4] = test system: MALME-3M melanoma
[5] = test system: RXF 393 renal
[6] = test system: SF-268 CNS
[7] = test system: SF-295 CNS
[8] = test system: SK-MEL-2 melanoma
[9] = test system: SNB-19 CNS
[10] = test system: SW-620 colon

Row | SMILES | GI50 [1] | TGI [1] | GI50 [2] | TGI [2] | GI50 [3] | TGI [3] | GI50 [4] | TGI [4] | GI50 [5] | TGI [5] | GI50 [6] | TGI [6] | GI50 [7] | TGI [7] | GI50 [8] | TGI [8] | GI50 [9] | TGI [9] | GI50 [10] | TGI [10]
1 | COc1ccc2c(c1)C(=O)c1c-2c(Nc2ccc(C(C)=O)cc2)nc2ccccc12 | 37.2 µM | > 100 µM | 17.7 µM | 78.3 µM | 29 µM | > 100 µM | 49.6 µM | > 100 µM | 2.54 µM | 9.2 µM | 58.7 µM | > 100 µM | 33.8 µM | > 100 µM | 97.7 µM | > 100 µM | 14.5 µM | 37.3 µM | > 100 µM | > 100 µM
2 | CN(C)c1ccc(/C=C(\C#N)c2nc3ccccc3n2C)cc1 | 4.53 µM | > 100 µM | 3.4 µM | 31.2 µM | 2.99 µM | 13.1 µM | 6.17 µM | 60.6 µM | 2.77 µM | > 24.8 µM | 5.96 µM | > 95.1 µM | 1.9 µM | 16.9 µM | 3.9 µM | 68.5 µM | 7.27 µM | > 100 µM | 0.921 µM | > 60.1 µM
3 | O=C([O][Hg][CH2]C1COC([CH2][Hg][O]C(=O)c2ccccc2)CO1)c1ccccc1 (stereo not given) | 19.3 µM and 16.4 µM | 37.6 µM and 33.8 µM | 7.71 µM and 1.69 µM | 20.4 µM and 3.27 µM | 18.8 µM | 33 µM | 2.06 µM and 1.7 µM | 3.81 µM and 3.23 µM | 8.88 µM and 1.45 µM | 22.8 µM and 2.76 µM | 17.9 µM and 3.51 µM | 34 µM and 15.5 µM | 19.2 µM and 17.8 µM | 41.7 µM and 31.6 µM | 12.8 µM and 1.84 µM | 25.7 µM and 3.75 µM | 19.6 µM and 6.18 µM | 43.2 µM and 21.9 µM | 1.64 µM | 3.04 µM
4 | O=C(c1ccco1)c1nc2cc(F)ccc2[n+]([O-])c1C(F)(F)F | 34.6 µM | > 100 µM | 22.2 µM | 51.6 µM | 38.8 µM | > 100 µM | 17.4 µM | 33.9 µM | 19.2 µM | 52.7 µM | 39.2 µM | > 100 µM | 51.8 µM | > 100 µM | 20.8 µM | 50.3 µM | 47.4 µM | > 100 µM | > 100 µM | > 100 µM
5 | C/C(=N\N=C(\[Se])N1CCN(c2ccccn2)CC1)c1ccccn1 | 0.0476 µM | 21.7 µM | – | 25 µM | 0.586 µM | 20.1 µM | 0.159 µM | 3.78 µM | – | 1.83 µM | – | 19.5 µM | 0.0204 µM | 16.7 µM | – | 2.36 µM | 0.13 µM | 18.6 µM | – | 12.4 µM
6 | N#Cc1ccc(N2Cc3ccccc3OC3=C2C(=O)c2c(O)ccc(O)c2C3=O)cc1 | 2.49 µM | 9.76 µM | 0.572 µM | 1.26 µM | 0.307 µM | 0.919 µM | 0.0837 µM | 0.264 µM | 0.157 µM | 0.313 µM | 0.598 µM | 1.72 µM | 2.12 µM | 6.96 µM | 1.01 µM | 3.8 µM | 1.09 µM | 5.05 µM | 0.0906 µM | 0.306 µM
7 | CCN1C(=O)NC(=O)C(C)(N2C(=O)c3c(F)c(F)c(F)c(F)c3C2=O)C1=O (stereo not given) | 3.69 µM | 18.3 µM | 3.82 µM | 13.3 µM | 3.13 µM | 11.6 µM | 2.06 µM | 5.48 µM | 1.99 µM | 4.43 µM | 2.6 µM | 7.43 µM | 9.67 µM | 23.9 µM | 3.84 µM | 21.6 µM | 9.49 µM | 24.9 µM | 1.82 µM | 3.85 µM
8 | Cc1noc(C)c1-c1cc(O)cc(C(O)c2ccccc2)c1 (stereo not given) | 22.4 µM | > 100 µM | 28.2 µM | > 100 µM | 69.5 µM | > 100 µM | 28.9 µM | > 100 µM | 4.58 µM | > 100 µM | 39.3 µM | > 100 µM | 7.31 µM | > 100 µM | 23.5 µM | > 100 µM | 5.69 µM | > 100 µM | 24.6 µM | > 100 µM
9 | COc1ccc(-c2nn(-c3cccc(NC(=O)c4ccc5c(c4)OCCO5)c3)cc2-c2ccncc2)cc1Cl | 2.98 µM | 77.5 µM | 1.79 µM | 7.4 µM | 3.99 µM | 24.9 µM | 0.833 µM | 6.72 µM | 1.23 µM | 4.52 µM | 3.75 µM | 34 µM | 1.56 µM | 4.43 µM | 2.36 µM | 7.15 µM | 4.63 µM | 98.1 µM | 2.62 µM | 19.2 µM
10 | CCOC(=O)c1c2c(n(Cc3ccccc3)c1C)-c1ccccc1C(=O)C2=O | 16.8 µM | 36.4 µM | 15.7 µM | 29.7 µM | 4.21 µM | 12.4 µM | 13.7 µM | 29 µM | 17.1 µM | 36.6 µM | 19.5 µM | 47.2 µM | 19.6 µM | 48.4 µM | 18.4 µM | 40.8 µM | 15.4 µM | 29.4 µM | 11.7 µM | 28.4 µM
